Results from patent publication US9113629B2, “4-amino-6-(4-substituted-phenyl)-picolinates and 6-amino-2-(4-substituted-phenyl)-pyrimidine-4-carboxylates and their use as herbicides” (DOW AGROSCIENCES LLC, priority 2013, dated 2015).
Where two headings read alike, the source gives them in different places.

Legend:
[1] = test system: Key Grass and Sedge Weeds as well as Grass Crops; experiment: Post-emergent Test II herbicidal activity (Table 6); type: in vivo; conditions: post-emergence, 336 h; for pest or weed control at 70 g/ha: application rate 70 g ai/ha; for pest or weed control at 140 g/ha: application rate 140 g ai/ha
How it was run: (§1)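 Test species were raised 7–21 d under greenhouse conditions until reaching the first or second true leaf, sprayed with formulated compound at 187 L/ha, and kept subirrigated to avoid wash-off. Fourteen days later, damage was rated visually on a 0–100% scale against untreated plants.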

[2] = test system: Key Broadleaf Weed and Crop Species; experiment: Post-emergent Test II herbicidal activity (Table 5); type: in vivo; conditions: post-emergence, 336 h, post-emergent, 14 days after application; for pest or weed control at 70 g/ha: 70 g ai/ha; for pest or weed control at 140 g/ha: 140 g ai/ha
How it was run: as §1

[3] = Triticum aestivum, TRZSS (wheat), read-out: Visual Growth Reduction (%) 14 Days After Application, TRZSS
[4] = CYPES: yellow nutsedge (Cyperus esculentus), read-out: Visual Growth Reduction (%) 14 Days After Application, CYPES
[5] = DIGSA: crabgrass (Digitaria sanguinalis), read-out: Visual Growth Reduction (%) 14 Days After Application, DIGSA
[6] = ECHCG: barnyardgrass (Echinochloa crus-galli), read-out: Visual Growth Reduction (%) 14 Days After Application, ECHCG
[7] = ORYSA: rice (Oryza sativa), read-out: Visual Growth Reduction (%) 14 Days After Application, ORYSA
[8] = SETFA: giant foxtail (Setaria faberi), read-out: Visual Growth Reduction (%) 14 Days After Application, SETFA
[9] = SORVU: grain sorghum (Sorghum vulgare), read-out: Visual Growth Reduction (%) 14 Days After Application, SORVU
[10] = ZEAMX: maize, corn (Zea mays), read-out: Visual Growth Reduction (%) 14 Days After Application, ZEAMX
[11] = ABUTH: velvetleaf (Abutilon theophrasti), read-out: Visual Growth Reduction (%) 14 Days After Application ABUTH
[12] = AMARE: redroot pigweed (Amaranthus retroflexus), read-out: Visual Growth Reduction (%) 14 Days After Application AMARE
[13] = BRSNN: oilseed-rape, canola (Brassica napus), read-out: Visual Growth Reduction (%) 14 Days After Application BRSNN
[14] = CHEAL: lambsquarters (Chenopodium album), read-out: Visual Growth Reduction (%) 14 Days After Application CHEAL
[15] = EPHHL: wild poinsettia (Euphorbia heterophylla), read-out: Visual Growth Reduction (%) 14 Days After Application EPHHL
[16] = HELAN: sunflower (Helianthus annuus), read-out: Visual Growth Reduction (%) 14 Days After Application HELAN
[17] = VIOTR: wild pansy (Viola tricolor), read-out: Visual Growth Reduction (%) 14 Days After Application VIOTR

## Nc1c(Cl)c(C(=O)O)nc(-c2ccc(I)c(F)c2)c1Cl [Compound 145, 4-Amino-3,5-dichloro-6-(3-fluoro-4-iodophenyl)picolinic acid]
[1]; [3]
  pest or weed control at 70 g/ha: 60 to 74%
  pest or weed control at 140 g/ha: 60 to 74%
[1]; [4]
  pest or weed control at 70 g/ha: 45 to 59%
  pest or weed control at 140 g/ha: 45 to 59%
[1]; [5]
  pest or weed control at 70 g/ha: 85 to 94%
  pest or weed control at 140 g/ha: 85 to 94%
[1]; [6]
  pest or weed control at 70 g/ha: 75 to 84%
  pest or weed control at 140 g/ha: 75 to 84%
[1]; [7]
  pest or weed control at 70 g/ha: 0 to 29%
  pest or weed control at 140 g/ha: 0 to 29%
[1]; [8]
  pest or weed control at 70 g/ha: 75 to 84%
  pest or weed control at 140 g/ha: 75 to 84%
[1]; [9]
  pest or weed control at 70 g/ha: 85 to 94%
  pest or weed control at 140 g/ha: 85 to 94%
[1]; [10]
  pest or weed control at 70 g/ha: 75 to 84%
  pest or weed control at 140 g/ha: 75 to 84%
[2]; [11]
  pest or weed control at 70 g/ha: 45 to 59%
  pest or weed control at 140 g/ha: 60 to 74%
[2]; [12]
  pest or weed control at 70 g/ha: 75 to 84%
  pest or weed control at 140 g/ha: 95 to 100%
[2]; [13]
  pest or weed control at 70 g/ha: 95 to 100%
  pest or weed control at 140 g/ha: 95 to 100%
[2]; [14]
  pest or weed control at 70 g/ha: 95 to 100%
  pest or weed control at 140 g/ha: 95 to 100%
[2]; [15]
  pest or weed control at 70 g/ha: 60 to 74%
  pest or weed control at 140 g/ha: 60 to 74%
[2]; [16]
  pest or weed control at 70 g/ha: 95 to 100%
  pest or weed control at 140 g/ha: 95 to 100%
[2]; [17]
  pest or weed control at 70 g/ha: 0 to 29%
  pest or weed control at 140 g/ha: 0 to 29%

## Nc1c(Cl)c(C(=O)O)nc(-c2ccc(C(F)(F)F)c(F)c2)c1Cl [Compound 146]
[1]; [3]
  pest or weed control at 70 g/ha: 60 to 74%
  pest or weed control at 140 g/ha: 75 to 84%
[1]; [4]
  pest or weed control at 70 g/ha: 95 to 100%
  pest or weed control at 140 g/ha: 95 to 100%
[1]; [5]
  pest or weed control at 70 g/ha: 60 to 74%
  pest or weed control at 140 g/ha: 60 to 74%
[1]; [6]
  pest or weed control at 70 g/ha: 75 to 84%
  pest or weed control at 140 g/ha: 85 to 94%
[1]; [7]
  pest or weed control at 70 g/ha: 0 to 29%
  pest or weed control at 140 g/ha: 0 to 29%
[1]; [9]
  pest or weed control at 70 g/ha: 30 to 44%
  pest or weed control at 140 g/ha: 30 to 44%
[1]; [10]
  pest or weed control at 70 g/ha: 60 to 74%
  pest or weed control at 140 g/ha: 60 to 74%
[2]; [11]
  pest or weed control at 70 g/ha: 75 to 84%
  pest or weed control at 140 g/ha: 85 to 94%
[2]; [12]
  pest or weed control at 70 g/ha: 75 to 84%
  pest or weed control at 140 g/ha: 85 to 94%
[2]; [13]
  pest or weed control at 70 g/ha: 85 to 94%
  pest or weed control at 140 g/ha: 85 to 94%
[2]; [14]
  pest or weed control at 70 g/ha: 85 to 94%
  pest or weed control at 140 g/ha: 85 to 94%
[2]; [15]
  pest or weed control at 70 g/ha: 0 to 29%
  pest or weed control at 140 g/ha: 0 to 29%
[2]; [16]
  pest or weed control at 70 g/ha: 95 to 100%
  pest or weed control at 140 g/ha: 95 to 100%
[2]; [17]
  pest or weed control at 70 g/ha: 0 to 29%
  pest or weed control at 140 g/ha: 0 to 29%
